From patent US8742106B2 (Novartis AG, priority 2009, dated 2014)

Tests used:
[1] = target: T1, human orexin 1 receptors (Homo sapiens (Human), UniProt O43613); assay: Radioligand Binding Assay II ([3H]-SB649868 competition, cell membranes); details: read-out: binding II hOx1R Kd
Description: (§1) Radioligand Binding Assay II
(§2) For crude cell membrane preparations, cells (CHO, Chinese hamster ovary or HEK, human embryonic kidney) expressing human orexin 1 or human orexin 2 receptors, were washed with HEPES (10 mM, pH 7.5), scraped off the culture plates with the same buffer, and centrifuged at 4° C. for 5 min at 2500×g. The cell pellet was either stored at −80° C. or used directly. Before the experiments, cell membranes were re-suspended in binding assay buffer (10 mM HEPES, 0.5% (w/v) bovine serum albumin, pH 7.5) by homogenisation with a Polytron homogeniser at 50 Hz for 20 s. Cell membranes were also used as made available by commercial providers.
(§3) Bound radioactivity was measured, and data were analysed with the program XLFIT or Graphpad Prism. Protein concentration was determined according to the Bradford/BioRad Protein Assay Kit.
(§4) In competition experiments, cell homogenates (150 μl) were incubated in assay buffer (10 mM HEPES, pH 7.5, 0.5% (w/v) bovine serum albumin, 5 mM MgCl2, 1 mM CaCl2, and tween 0.05%) for 1 h at room temperature with about 1 nM of the radioligand [^3H]-SB649868, 66 Ci/mmole, 50 μl), and with various concentrations of compounds of the invention (50 μl) in triplicates; non-specific binding was determined in the presence of almorexant (10 μM). Reactions were terminated by vacuum filtration, 3 washes of ice cold wash buffer (Tris-HCl pH 7.4/10 mM, with NaCl 154 mM). Competition data is expressed in Table 2 as Kd [μM].

[2] = target: T2, human orexin 2 receptors (Homo sapiens (Human), UniProt O43614); assay: Calcium Accumulation in Cells (FLIPR), antagonism of orexin A; format: cell-based; details: antagonism of orexin A, Cheng-Prusoff corrected; read-out: FLIPR hOx2R Ki
T2 sequence (O43614 whole entry): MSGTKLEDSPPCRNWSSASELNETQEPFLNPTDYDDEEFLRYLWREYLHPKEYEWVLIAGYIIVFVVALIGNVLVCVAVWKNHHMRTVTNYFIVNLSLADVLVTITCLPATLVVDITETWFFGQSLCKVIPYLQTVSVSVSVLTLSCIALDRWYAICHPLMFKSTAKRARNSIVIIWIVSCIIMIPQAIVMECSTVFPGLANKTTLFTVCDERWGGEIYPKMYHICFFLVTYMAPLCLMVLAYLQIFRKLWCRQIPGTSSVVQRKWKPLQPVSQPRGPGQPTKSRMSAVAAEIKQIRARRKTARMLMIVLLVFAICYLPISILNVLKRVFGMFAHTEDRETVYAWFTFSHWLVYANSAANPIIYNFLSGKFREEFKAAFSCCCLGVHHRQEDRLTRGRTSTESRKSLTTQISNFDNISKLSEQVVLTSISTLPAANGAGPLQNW
Procedure, shortened: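 Cells expressing human orexin 2 receptor, loaded with Fluo4-AM (2 μM) plus probenecid (0.1 mM) for 1 h, then washed. Antagonism read as inhibition of the orexin A calcium fluorescence signal (FLIPR).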

[3] = target: T1, human orexin 1 receptors; assay: as above; format: cell-based; details: antagonism of orexin A, Cheng-Prusoff corrected; read-out: FLIPR hOx1R Ki
[4] = target: T2, human orexin 2 receptors; assay: Radioligand Binding Assay II ([3H]-SB649868 competition, cell membranes); details: read-out: binding II hOx2R Kd
Description: as §1, §2, §3
as §4, with “mM).” for “mM). Competition data is expressed in Table 2 as Kd [μM].”

T1 sequence (O43613 whole entry): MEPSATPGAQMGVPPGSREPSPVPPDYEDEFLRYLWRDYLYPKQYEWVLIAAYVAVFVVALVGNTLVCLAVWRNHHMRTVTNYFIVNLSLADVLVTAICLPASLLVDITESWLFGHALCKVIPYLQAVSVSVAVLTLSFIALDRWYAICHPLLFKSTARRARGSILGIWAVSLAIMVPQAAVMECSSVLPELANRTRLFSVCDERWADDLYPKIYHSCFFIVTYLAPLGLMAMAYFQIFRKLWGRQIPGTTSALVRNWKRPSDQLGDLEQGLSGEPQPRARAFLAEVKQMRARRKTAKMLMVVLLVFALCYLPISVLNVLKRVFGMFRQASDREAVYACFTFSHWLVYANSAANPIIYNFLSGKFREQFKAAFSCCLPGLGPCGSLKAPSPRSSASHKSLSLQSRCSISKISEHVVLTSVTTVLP

In the case of COc1ccc([C@H](C)NC(=O)COc2cc(C(F)(F)F)c3c(C4CC4)nn(C)c3n2)cc1 [Example 6.15, (S)-2-(3-cyclopropyl-1-methyl-4-(trifluoromethyl)-1H-pyrazolo[3,4-b]pyridin-6-yloxy)-N-(1-(4-methoxyphenyl)ethyl)acetamide], the Kd [1] is reported as 0.146 µM, the Ki [2] is reported as 0.012 µM and the Ki [3] is reported as 0.16 µM. The Kd [4] was 0.037 µM.
In the case of COc1ccc([C@H](C)NC(=O)COc2cc(C(F)F)c3c(-c4ccccc4)nn(C)c3n2)cc1 [Example 6.17, (S)-2-(4-(difluoromethyl)-1-methyl-3-phenyl-1H-pyrazolo[3,4-b]pyridin-6-yloxy)-N-(1-(4-methoxyphenyl)ethyl)acetamide], the Kd [1] is reported as 0.011 µM, the Ki [2] is reported as 0.002 µM and the Ki [3] is reported as 0.019 µM. For the same molecule, the Kd [4] was 0.007 µM.
For Cc1nn(C)c(C)c1C(C)NC(=O)COc1cc(C(F)F)c2c(-c3ccccc3)nn(C)c2n1 (stereo not drawn) [Example 6.20, 2-(4-(difluoromethyl)-1-methyl-3-phenyl-1H-pyrazolo[3,4-b]pyridin-6-yloxy)-N-(1-(1,3,5-trimethyl-1H-pyrazol-4-yl)ethyl)acetamide], the Kd [1] was 0.022 µM, the Ki [2] was 0.059 µM and the Ki [3] was 0.063 µM. The Kd [4] was 0.09 µM.
Work on Cc1ccc([C@H](C)NC(=O)COc2cc(C(F)F)c3c(-c4ccccc4)nn(C)c3n2)cc1 [Example 6.21, (S)-2-(4-(difluoromethyl)-1-methyl-3-phenyl-1H-pyrazolo[3,4-b]pyridin-6-yloxy)-N-(1-p-tolylethyl)acetamide] yielded a Kd [1] of 0.037 µM, a Ki [2] of 0.007 µM and a Ki [3] of 0.029 µM. It also gave a Kd [4] of 0.03 µM.
COc1ccc(C(C)NC(=O)COc2cc(C(F)F)c3c(-c4ccccc4)nn(C)c3n2)cn1 (stereo not drawn) [Example 6.22, 2-(4-(difluoromethyl)-1-methyl-3-phenyl-1H-pyrazolo[3,4-b]pyridin-6-yloxy)-N-(1-(6-methoxypyridin-3-yl)ethyl)acetamide] was tested, and the Kd [1] was 0.056 µM, the Ki [2] was 0.037 µM and the Ki [3] was 0.175 µM. For the same molecule, the Kd [4] was 0.042 µM.
For COc1ccccc1-c1nn(C)c2nc(OCC(=O)N[C@@H](C)c3ccc(C)cc3)ccc12 [Example 6.24, (S)-2-(3-(2-methoxyphenyl)-1-methyl-1H-pyrazolo[3,4-b]pyridin-6-yloxy)-N-(1-p-tolylethyl)acetamide], the Kd [1] was 0.045 µM, the Ki [2] was 0.105 µM and the Ki [3] was 0.133 µM. The Kd [4] was 0.15 µM.
Molecule Cc1ccc([C@H](C)NC(=O)COc2ccc3c(C(C)(C)C)nn(C)c3n2)cc1 [Example 6.25, (S)-2-(3-tert-butyl-1-methyl-1H-pyrazolo[3,4-b]pyridin-6-yloxy)-N-(1-p-tolylethyl)acetamide] has a Kd [1] of 0.242 µM, a Ki [2] of 0.065 µM and a Ki [3] of 0.545 µM. For the same molecule, the Kd [4] was 0.164 µM.
Cc1ccc([C@H](C)NC(=O)COc2cc(C)c3c(C(C)C)nn(C)c3n2)cc1 [Example 6.26, (S)-2-(3-isopropyl-1,4-dimethyl-1H-pyrazolo[3,4-b]pyridin-6-yloxy)-N-(1-p-tolylethyl)acetamide] gave a Kd [1] of 0.119 µM, a Ki [2] of 0.032 µM and a Ki [3] of 0.164 µM. The Kd [4] was 0.076 µM.
For Cc1ccc([C@H](C)NC(=O)COc2cc(C)c3c(-c4cc(C)oc4C)nn(C)c3n2)cc1 [Example 6.30, (S)-2-(3-(2,5-dimethylfuran-3-yl)-1,4-dimethyl-1H-pyrazolo[3,4-b]pyridin-6-yloxy)-N-(1-p-tolylethyl)acetamide], the Kd [1] was 0.019 µM, the Ki [2] was 0.062 µM and the Ki [3] was 0.01 µM. The Kd [4] was 0.168 µM.
For COc1ccc([C@H](C)NC(=O)COc2cc(C)c3c(-c4cc(C)oc4C)nn(C)c3n2)cc1 [Example 6.31, (S)-2-(3-(2,5-dimethylfuran-3-yl)-1,4-dimethyl-1H-pyrazolo[3,4-b]pyridin-6-yloxy)-N-(1-(4-methoxyphenyl)ethyl)acetamide], the Kd [1] was 0.04 µM, the Ki [2] was 0.047 µM and the Ki [3] was 0.018 µM. The Kd [4] was 0.221 µM.
In the case of Cc1cc(-c2nn(C)c3nc(OCC(=O)NC(C)c4c(C)nn(C)c4C)cc(C)c23)c(C)o1 (stereo not drawn) [Example 6.33, 2-(3-(2,5-dimethylfuran-3-yl)-1,4-dimethyl-1H-pyrazolo[3,4-b]pyridin-6-yloxy)-N-(1-(1,3,5-trimethyl-1H-pyrazol-4-yl)ethyl)acetamide], the Kd [1] is reported as 0.014 µM, the Ki [2] is reported as 0.17 µM and the Ki [3] is reported as 0.011 µM. It also gave a Kd [4] of 0.126 µM.
COc1ccc([C@H](C)NC(=O)COc2cc(C)c3c(-c4ccoc4C)nn(C)c3n2)cc1 [Example 6.34, (S)-2-(1,4-dimethyl-3-(2-methylfuran-3-yl)-1H-pyrazolo[3,4-b]pyridin-6-yloxy)-N-(1-(4-methoxyphenyl)ethyl)acetamide] was tested, and the Kd [1] was 0.07 µM, the Ki [2] was 0.113 µM and the Ki [3] was 0.103 µM. It also gave a Kd [4] of 0.188 µM.
COc1ccnc(-c2nn(C)c3nc(OCC(=O)N[C@@H](C)c4ccc(C)cc4)cc(C)c23)c1 [Example 6.37, (S)-2-(3-(4-methoxypyridin-2-yl)-1,4-dimethyl-1H-pyrazolo[3,4-b]pyridin-6-yloxy)-N-(1-p-tolylethyl)acetamide] was tested, and the Kd [1] was 0.006 µM, the Ki [2] was 0.01 µM and the Ki [3] was 0.007 µM. For the same molecule, the Kd [4] was 0.017 µM.
Work on Cc1ccc2c(n1)CC[C@@H]2NC(=O)COc1cc(C(F)F)c2c(-c3cc(C)oc3C)nn(C)c2n1 [Example 6.38, (S)-2-(4-(difluoromethyl)-3-(2,5-dimethylfuran-3-yl)-1-methyl-1H-pyrazolo[3,4-b]pyridin-6-yloxy)-N-(2-methyl-6,7-dihydro-5H-cyclopenta[b]pyridin-5-yl)acetamide] yielded a Kd [1] of 0.123 µM, a Ki [2] of 0.064 µM and a Ki [3] of 0.091 µM. It also gave a Kd [4] of 0.271 µM.
COc1ccc([C@H](C)NC(=O)COc2cc(C(F)F)c3c(-c4cc(C)oc4C)nn(C)c3n2)cc1 [Example 6.39, (S)-2-(4-(difluoromethyl)-3-(2,5-dimethylfuran-3-yl)-1-methyl-1H-pyrazolo[3,4-b]pyridin-6-yloxy)-N-(1-(4-methoxyphenyl)ethyl)acetamide] was tested, and the Kd [1] was 0.02 µM, the Ki [2] was 0.046 µM and the Ki [3] was 0.015 µM. It also gave a Kd [4] of 0.065 µM.
Cc1ccc2c(c1)CCC2NC(=O)COc1cc(C)c2c(C3CC3)nn(C)c2n1 (stereo not drawn) [Example 6.41, 2-(3-cyclopropyl-1,4-dimethyl-1H-pyrazolo[3,4-b]pyridin-6-yloxy)-N-(5-methyl-2,3-dihydro-1H-inden-1-yl)acetamide] gave a Kd [1] of 0.908 µM, a Ki [2] of 0.029 µM and a Ki [3] of 0.495 µM. It also gave a Kd [4] of 0.225 µM.
In the case of COc1ccc2c(c1)CC[C@@H]2NC(=O)COc1cc(C(F)F)c2c(C3CC3)nn(C)c2n1 [Example 6.42, (S)-2-(3-cyclopropyl-4-(difluoromethyl)-1-methyl-1H-pyrazolo[3,4-b]pyridin-6-yloxy)-N-(5-methoxy-2,3-dihydro-1H-inden-1-yl)acetamide], the Kd [1] is reported as 0.063 µM, the Ki [2] is reported as 0.01 µM and the Ki [3] is reported as 0.083 µM. For the same molecule, the Kd [4] was 0.014 µM.
COc1ccc2c(c1)CC[C@@H]2NC(=O)COc1cc(C(F)(F)F)c2c(C3CC3)nn(C)c2n1 [Example 6.43, (S)-2-(3-cyclopropyl-1-methyl-4-(trifluoromethyl)-1H-pyrazolo[3,4-b]pyridin-6-yloxy)-N-(5-methoxy-2,3-dihydro-1H-inden-1-yl)acetamide] showed a Kd [1] of 0.206 µM, a Ki [2] of 0.003 µM and a Ki [3] of 0.234 µM. The Kd [4] was 0.018 µM.
In the case of Cc1ccc2c(c1)CC[C@@H]2NC(=O)COc1cc(C)c2c(C3CC3)nn(C)c2n1 [Example 6.44, (S)-2-(3-cyclopropyl-1,4-dimethyl-1H-pyrazolo[3,4-b]pyridin-6-yloxy)-N-(5-methyl-2,3-dihydro-1H-inden-1-yl)acetamide], the Kd [1] is reported as 0.067 µM, the Ki [2] is reported as 0.014 µM and the Ki [3] is reported as 0.223 µM. The Kd [4] was 0.028 µM.
Work on Cc1cc(OCC(=O)NC(C)c2cnc3[nH]ccc3c2)nc2c1c(C1CC1)nn2C (stereo not drawn) [Example 6.57, N-(1-(1H-pyrrolo[2,3-b]pyridin-5-yl)ethyl)-2-(3-cyclopropyl-1,4-dimethyl-1H-pyrazolo[3,4-b]pyridin-6-yloxy)acetamide] yielded a Kd [1] of 0.358 µM, a Ki [2] of 0.077 µM and a Ki [3] of 0.658 µM. It also gave a Kd [4] of 0.17 µM.
Cc1cc(OCC(=O)NC(C)c2ccc3c(ccn3C)c2)nc2c1c(C1CC1)nn2C (stereo not drawn) [Example 6.59, 2-(3-cyclopropyl-1,4-dimethyl-1H-pyrazolo[3,4-b]pyridin-6-yloxy)-N-(1-(1-methyl-1H-indol-5-yl)ethyl)acetamide] gave a Kd [1] of 0.07 µM, a Ki [2] of 0.063 µM and a Ki [3] of 0.127 µM. It also gave a Kd [4] of 0.162 µM.
